Reference: ChEMBL document CHEMBL3739257, “Aryl amide small-molecule inhibitors of microRNA miR-21 function” (Bioorg Med Chem Lett, 2015)
The source made the active and inactive calls. The calls are words filed in the database; no cut-off is given here.

Columns and labels:
HeLa [1] = test: Inhibition of microRNA miR-21 expression in human HeLa cells assessed as reduction of intracellular miR-21 level by measuring luciferase signal relative to control; assay type: cell-based
Huh-7 = test: Inhibition of microRNA miR-122 expression in human Huh7-psiCHECK cells assessed as luciferase expression at 10 uM after 48 hrs by microplate reader analysis; assay type: cell-based
HeLa [2] = test: Inhibition of microRNA miR-21 expression in human HeLa cells assessed as luciferase signal at 10 uM after 48 hrs by microplate reader analysis relative to control; assay type: cell-based
Lampyridae = test: Inhibition of firefly luciferase at 10 uM preincubated for 1 hr followed by ATP addition measured after 3 mins by CellTiter-Glo assay
HeLa [3] = test: Inhibition of miR-222 expression in human HeLa cells at 10 uM after 48 hrs by qRT-PCR analysis; assay type: functional, cell-based
[4] = Inhibition of microRNA miR-21 expression in human HeLa cells assessed as luciferase signal at 10 uM after 48 hrs by microplate reader analysis; assay type: cell-based
HeLa [5] = test: Inhibition of miR-17-5p expression in human HeLa cells at 10 uM after 48 hrs by qRT-PCR analysis; assay type: functional, cell-based
HeLa [6] = test: Inhibition of miR-21 expression in human HeLa cells at 10 uM after 48 hrs by qRT-PCR analysis; assay type: functional
HeLa [7] = test: Inhibition of microRNA miR-21P transfected in human HeLa cells assessed as luciferase signal at 10 uM; assay type: cell-based
HeLa [8] = test: Inhibition of primary microRNA miR-21 expression in human HeLa cells assessed as luciferase signal at 10 uM by qRT-PCR analysis relative to control; assay type: cell-based
HeLa [9] = test: Inhibition of miR-125b expression in human HeLa cells at 10 uM after 48 hrs by qRT-PCR analysis; assay type: functional, cell-based

For `COc1ccc(C(=O)NCCC2CCCCC2)cc1O`, the fold change (FC) (HeLa [1]) was 1.93.

`CCCNC(=O)c1ccc(OC)c(O)c1` gave a fold change (FC) (HeLa [1]) of 1.11.

`O=C(NCCc1ccccc1)c1ccc(Oc2ccccc2)cc1` gave a fold change (FC) (HeLa [1]) of 1.4.

`COc1ccc(C(=O)NCCc2ccccn2)cc1` showed a fold change (FC) (HeLa [1]) of 1.

In the case of `O=C(NCCC1=CCCCC1)c1ccc(O)cc1`, the fold change (FC) (HeLa [1]) is reported as 1.66.

In the case of `COc1ccc(C(=O)Nc2ccc3ccccc3c2)cc1`, the inhibition (Huh-7) is reported as “inactive”, the inhibition (HeLa [2]) is reported as greater than 100% and the fold change (FC) (HeLa [1]) is reported as 1.21.

For `Nc1ccc(C(=O)NCCc2ccccc2)cc1`, the fold change (FC) (HeLa [1]) was 1.46.

`COc1ccc(C(=O)NCCc2ccccc2)cc1` showed a fold change (FC) (HeLa [1]) of 0.5.

`O=C(Nc1ccccc1)c1ccccc1` showed a fold change (FC) (HeLa [1]) of 1.49.

Molecule `COc1ccc(C(=O)NCCC2=CCCCC2)cc1O` has a fold change (FC) (HeLa [1]) of 1.63.

`O=C(NCCC1=CCCCC1)c1ccccc1` showed a fold change (FC) (HeLa [1]) of 1.58.

For `CCCOc1ccc(C(=O)NCCc2ccccc2)cc1`, the fold change (FC) (HeLa [1]) was 1.36.

`COc1ccc(C(=O)NCCCCc2ccccc2)cc1` gave a fold change (FC) (HeLa [1]) of 1.03.

For `COc1ccc(C(=O)NCCC2=CCCCC2)cc1OC(C)=O`, the fold change (FC) (HeLa [1]) was 1.83.

With `COc1ccc(C(=O)NCCc2ccc3ccccc3c2)cc1` the fold change (FC) (HeLa [1]) was 1.41.

Work on `C=CCNC(=O)c1ccc(OC)cc1` yielded a fold change (FC) (HeLa [1]) of 1.28.

`COc1ccc(C(=O)NCCCc2ccccc2)cc1` gave a fold change (FC) (HeLa [1]) of 1.94.

For `COc1ccc(C(=O)Nc2ccccc2)cc1`, the inhibition (Lampyridae) was “inactive”, the inhibition (HeLa [3]) was “inactive” and the EC50 [4] was 2.3 µM. For the same molecule, the inhibition (HeLa [5]) was “inactive”, the inhibition at 10 µM (HeLa [6]) was 43% and the inhibition (HeLa [7]) was “inactive”. The inhibition (HeLa [8]) was “inactive”, the inhibition (HeLa [9]) was “inactive” and the fold change (FC) (HeLa [1]) was 2.39.

For `O=C(NCCC1=CCCCC1)c1ccc(O)c(O)c1`, the inhibition (Lampyridae) was “inactive”, the inhibition (HeLa [3]) was “inactive” and the EC50 [4] was 6.1 µM. For the same molecule, the inhibition (HeLa [5]) was “inactive”, the inhibition at 10 µM (HeLa [6]) was 42% and the inhibition (Huh-7) was “inactive”. For the same molecule, the inhibition (HeLa [7]) was “inactive”, the inhibition (HeLa [2]) was greater than 100% and the inhibition (HeLa [8]) was “inactive”. For the same molecule, the inhibition (HeLa [9]) was “inactive” and the fold change (FC) (HeLa [1]) was 2.22.

Molecule `O=C(NCCC1=CCCCC1)c1cccc(O)c1` has a fold change (FC) (HeLa [1]) of 1.61.

Molecule `COc1ccc(C(N)=O)cc1` has a fold change (FC) (HeLa [1]) of 1.11.

For `COc1ccc(NC(=O)c2ccc(OC)cc2)cc1`, the inhibition (Lampyridae) was “inactive”, the inhibition (HeLa [3]) was “inactive” and the EC50 [4] was 0.86 µM. For the same molecule, the inhibition (HeLa [5]) was “inactive”, the inhibition at 10 µM (HeLa [6]) was 61% and the inhibition (Huh-7) was “inactive”. The inhibition (HeLa [7]) was “inactive”, the inhibition (HeLa [2]) was greater than 100% and the inhibition (HeLa [8]) was “inactive”. The inhibition (HeLa [9]) was “inactive” and the fold change (FC) (HeLa [1]) was 2.88.

With `COc1ccc(C(=O)NCc2ccccc2)cc1` the fold change (FC) (HeLa [1]) was 1.43.

`COc1ccc(C(=O)NCCC2=CCCCC2)cc1` showed a fold change (FC) (HeLa [1]) of 1.05.

Molecule `COc1ccc(C(=O)NCCc2ccccc2)cc1O` has a fold change (FC) (HeLa [1]) of 0.95.

Work on `COc1ccc(C(=O)NCCC2=CCCCC2)cc1OC1CCN(C(C)C)CC1` yielded a fold change (FC) (HeLa [1]) of 1.36.

With `CCOc1ccc(C(=O)NCCc2ccccc2)cc1` the fold change (FC) (HeLa [1]) was 1.56.

For `COc1ccc(C(=O)NCCC2=CCCCC2)cc1OC`, the inhibition (Lampyridae) was “inactive”, the inhibition (HeLa [3]) was “inactive” and the EC50 [4] was 10.8 µM. For the same molecule, the inhibition (HeLa [5]) was “inactive”, the inhibition at 10 µM (HeLa [6]) was 17% and the inhibition (Huh-7) was “inactive”. The inhibition (HeLa [7]) was “inactive”, the inhibition (HeLa [2]) was greater than 100% and the inhibition (HeLa [8]) was “inactive”. For the same molecule, the inhibition (HeLa [9]) was “inactive” and the fold change (FC) (HeLa [1]) was 2.01.
